The supplement of paper PMC10307832

Assays:
Experiment in all cases: relative viability (nuclei count vs DMSO), 5 days (fraction); higher = more cells survive
Zosuquidar + Pictilisib = compound: O[C@@H](COc1cccc2ncccc12)CN1CCN([C@@H]2c3ccccc3[C@@H]3[C@H](c4ccccc42)C3(F)F)CC1 [Zosuquidar] + CS(=O)(=O)N1CCN(Cc2cc3nc(-c4cccc5[nH]ncc45)nc(N4CCOCC4)c3s2)CC1 [Pictilisib] (partner 1 µM)
In short: (§1)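 Relative viability divides the nuclei count in treated wells by that in vehicle wells. Lung cancer cell lines were seeded in 1536-well plates, dosed by pin tool the next day, and fixed and stained after 5 days in one step with final 0.05% Triton X-100, 1% formaldehyde and 1 ug/ml Hoechst. Dosing was a single drug or a fixed anchor-drug dose plus five library-drug doses (not always all listed) in √10 steps, and values are medians of duplicate plates imaged at 4×.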

Cabozantinib + Olaparib = compound: COc1cc2nccc(Oc3ccc(NC(=O)C4(C(=O)Nc5ccc(F)cc5)CC4)cc3)c2cc1OC [Cabozantinib] + O=C(c1cc(Cc2n[nH]c(=O)c3ccccc23)ccc1F)N1CCN(C(=O)C2CC2)CC1 [Olaparib] (partner 8 µM)
In short: as §1

Zosuquidar + Olaparib = compound: O[C@@H](COc1cccc2ncccc12)CN1CCN([C@@H]2c3ccccc3[C@@H]3[C@H](c4ccccc42)C3(F)F)CC1 [Zosuquidar] + O=C(c1cc(Cc2n[nH]c(=O)c3ccccc23)ccc1F)N1CCN(C(=O)C2CC2)CC1 [Olaparib] (partner 8 µM)
In short: as §1

Cabozantinib + OSI-027 = compound: COc1cc2nccc(Oc3ccc(NC(=O)C4(C(=O)Nc5ccc(F)cc5)CC4)cc3)c2cc1OC [Cabozantinib] + COc1cccc2cc(-c3nc([C@H]4CC[C@H](C(=O)O)CC4)n4ncnc(N)c34)[nH]c12 [OSI-027] (partner 0.5 µM)
In short: as §1

Cell Line	relative viability (Zosuquidar + Pictilisib; first compound 0.01 µM)	relative viability (Zosuquidar + Pictilisib; first compound 0.03162 µM)	relative viability (Zosuquidar + Pictilisib; first compound 0.1 µM)	relative viability (Zosuquidar + Pictilisib; first compound 0.3162 µM)	relative viability (Zosuquidar + Pictilisib; first compound 1 µM)	relative viability (Cabozantinib + Olaparib; first compound 0.02 µM)	relative viability (Cabozantinib + Olaparib; first compound 0.06325 µM)	relative viability (Cabozantinib + Olaparib; first compound 0.2 µM)	relative viability (Cabozantinib + Olaparib; first compound 0.6325 µM)	relative viability (Cabozantinib + Olaparib; first compound 2 µM)	relative viability (Zosuquidar + Olaparib; first compound 0.01 µM)	relative viability (Zosuquidar + Olaparib; first compound 0.03162 µM)	relative viability (Zosuquidar + Olaparib; first compound 0.1 µM)	relative viability (Zosuquidar + Olaparib; first compound 0.3162 µM)	relative viability (Zosuquidar + Olaparib; first compound 1 µM)	relative viability (Cabozantinib + OSI-027; first compound 0.02 µM)	relative viability (Cabozantinib + OSI-027; first compound 0.06325 µM)	relative viability (Cabozantinib + OSI-027; first compound 0.2 µM)	relative viability (Cabozantinib + OSI-027; first compound 0.6325 µM)	relative viability (Cabozantinib + OSI-027; first compound 2 µM)
NCI-H3122	0.616	0.662	0.524	0.641	0.608	0.636	0.655	0.617	0.527	0.633	0.606	0.608	0.565	0.621	0.637	0.97	0.963	1.07	1.06	1.4
201T	0.659	0.683	0.573	0.677	0.665	0.909	0.893	0.832	0.842	0.832	0.801	0.821	0.816	0.836	0.862	0.453	0.877	0.772	0.877	0.774
SK-LU-1	0.552	0.642	0.567	0.689	0.543	0.605	0.559	0.488	0.437	0.38	0.517	0.535	0.485	0.531	0.435	0.3	0.37	0.394	0.298	0.312
NCI-H1734	0.388	0.484	0.399	0.471	0.478	0.67	0.646	0.711	0.635	0.584	0.614	0.674	0.613	0.655	0.646	0.433	0.611	0.59	0.586	0.573
NCI-H1651	0.589	0.661	0.559	0.668	0.615	0.176	0.196	0.202	0.184	0.192	0.181	0.194	0.169	0.2	0.179	0.725	0.69	0.612	0.796	0.581
PC-3 [JPC-3]	0.768	0.539	0.664	0.677	0.738	1.23	1.31	–	1.2	1.14	1.09	1.18	0.873	1.09	1.1	0.652	0.934	–	0.925	0.768
NCI-H1915	0.9	0.919	0.903	1.02	0.967	0.296	0.28	0.283	0.239	0.255	0.267	0.261	0.268	0.265	0.291	0.627	0.623	0.631	0.589	0.593
COR-L23	0.76	0.658	0.679	1.01	0.889	0.366	0.399	0.39	0.37	0.351	0.363	0.38	0.333	0.355	0.37	0.88	0.965	0.94	0.895	0.784
ChaGo-K-1	0.858	0.563	1.27	0.882	0.637	0.446	0.458	0.454	0.411	0.442	0.388	0.468	0.434	0.474	0.413	0.426	0.589	0.562	0.603	0.505
HOP-62	0.684	0.86	0.579	0.81	0.831	0.435	0.406	0.608	0.602	0.575	0.461	0.548	0.485	0.665	0.384	0.825	0.915	0.781	0.829	0.781
NCI-H1975	0.289	0.269	0.292	0.332	0.288	0.881	0.916	0.892	0.786	0.679	0.722	0.753	0.784	0.734	0.866	0.676	0.763	0.668	0.679	0.543
BEN	0.665	0.606	0.482	0.534	0.515	1.16	1.18	1.23	1.01	0.764	1.15	0.953	0.883	1.02	0.97	0.314	0.311	0.28	0.299	0.24
EMC-BAC-2	0.511	0.524	0.47	0.635	0.508	0.496	0.499	0.531	0.472	0.485	0.467	0.487	0.529	0.535	0.482	0.337	0.379	0.398	0.385	0.361
NCI-H441	0.449	0.435	0.512	–	0.595	0.787	0.664	0.615	0.59	0.703	0.708	0.61	0.738	0.482	0.525	0.428	0.653	0.663	0.564	0.559
NCI-H727	0.36	0.555	0.228	0.391	0.506	0.769	0.828	0.632	0.907	0.606	0.72	0.772	–	0.746	0.7	0.491	0.73	0.58	0.617	0.445
LU99A	0.252	0.275	0.354	0.327	0.4	0.304	0.258	0.283	0.281	0.261	0.239	0.264	0.285	0.273	0.254	0.231	0.298	0.274	0.31	0.311

Cell Line	relative viability (Zosuquidar + Pictilisib; first compound 0.01 µM)	relative viability (Zosuquidar + Pictilisib; first compound 0.03162 µM)	relative viability (Zosuquidar + Pictilisib; first compound 0.1 µM)	relative viability (Zosuquidar + Pictilisib; first compound 0.3162 µM)	relative viability (Zosuquidar + Pictilisib; first compound 1 µM)	relative viability (Cabozantinib + Olaparib; first compound 0.02 µM)	relative viability (Cabozantinib + Olaparib; first compound 0.06325 µM)	relative viability (Cabozantinib + Olaparib; first compound 0.2 µM)	relative viability (Cabozantinib + Olaparib; first compound 0.6325 µM)	relative viability (Cabozantinib + Olaparib; first compound 2 µM)	relative viability (Zosuquidar + Olaparib; first compound 0.01 µM)	relative viability (Zosuquidar + Olaparib; first compound 0.03162 µM)	relative viability (Zosuquidar + Olaparib; first compound 0.1 µM)	relative viability (Zosuquidar + Olaparib; first compound 0.3162 µM)	relative viability (Zosuquidar + Olaparib; first compound 1 µM)	relative viability (Cabozantinib + OSI-027; first compound 0.02 µM)	relative viability (Cabozantinib + OSI-027; first compound 0.06325 µM)	relative viability (Cabozantinib + OSI-027; first compound 0.2 µM)	relative viability (Cabozantinib + OSI-027; first compound 0.6325 µM)	relative viability (Cabozantinib + OSI-027; first compound 2 µM)
NCI-H2405	0.512	0.351	0.467	0.529	0.363	0.859	1.01	0.931	0.899	0.804	0.903	0.758	0.756	0.95	0.829	0.338	0.699	0.735	0.651	0.682
NCI-H2009	0.837	0.88	0.677	1.02	0.822	0.718	0.71	0.703	0.712	0.762	0.631	0.611	0.684	0.639	0.65	0.642	0.724	0.695	0.674	0.496
HCC-827	1.08	1.14	0.774	1.05	0.994	0.643	0.786	–	0.624	0.562	0.688	0.567	0.518	0.65	0.622	0.782	0.861	–	0.679	0.526
NCI-H838	0.423	0.428	0.284	0.488	0.441	0.847	0.836	0.774	0.699	0.662	0.758	0.74	0.814	0.825	0.847	0.458	0.38	0.339	0.414	0.366
CAL-12T	0.349	0.494	–	0.533	0.423	0.728	0.859	0.73	0.716	0.743	0.739	0.715	0.741	0.793	0.706	0.588	0.688	0.711	0.715	0.645
RERF-LC-KJ	0.467	0.586	0.536	0.679	0.57	1.06	1.05	0.96	0.824	0.921	0.802	0.985	0.878	1.01	0.855	0.498	0.623	0.547	0.602	0.645
NCI-H2347	0.627	0.495	0.467	0.735	0.647	0.641	0.549	0.525	0.493	0.446	0.589	0.545	0.579	0.603	0.475	0.303	0.42	0.45	–	0.294
PC-14	0.573	0.831	0.801	0.696	0.816	0.254	0.33	–	0.269	0.307	0.26	0.319	0.205	0.307	0.179	0.388	0.973	0.0936	1.03	0.865
HCC-366	0.154	0.185	0.15	0.151	0.195	0.597	0.464	0.395	0.4	0.335	0.314	0.377	0.415	0.324	0.324	0.753	1.03	0.951	0.795	0.778
LCLC-97TM1	0.203	0.219	–	0.192	0.226	0.483	0.492	0.332	0.342	0.407	0.307	0.453	–	0.335	0.515	0.153	0.572	0.448	0.57	0.689
HCC-44	0.615	0.57	0.603	0.742	0.815	0.988	1.02	0.964	0.997	1	1.01	1.02	1.02	0.961	0.934	–	0.646	0.556	0.557	0.408
A-427	0.665	0.538	0.567	0.91	0.77	0.715	0.709	0.714	0.761	0.704	0.757	0.711	0.76	0.771	0.819	0.375	0.537	0.468	0.486	0.472
NCI-H23	0.479	0.525	0.393	0.574	0.496	–	0.386	0.345	0.304	0.348	0.328	–	0.362	0.319	0.336	–	0.729	0.645	0.624	0.489
NCI-H520	0.327	0.295	0.289	0.363	0.297	0.369	0.341	0.386	0.42	0.228	0.395	0.312	0.341	0.29	0.335	0.215	0.289	0.247	0.286	0.218
ABC-1	0.756	0.661	0.724	0.743	0.679	–	0.786	0.939	0.598	0.816	0.892	0.684	1.09	0.78	0.901	0.538	0.497	0.489	0.567	0.456
NCI-H1395	0.574	0.556	0.52	0.683	0.809	0.439	0.466	0.497	0.46	0.454	0.469	0.441	–	0.501	0.443	0.514	0.675	0.632	0.69	0.573
